A word on the viability: it is a read-out of living cells in per cent, often relative to untreated cells.

The text below walks through data of patent US20170304388A1, “NEW INDICATION OF CARDIOVASCULAR DRUGS FOR PREPARATION OF CANCER INHIBITION PHARMACEUTICAL COMPOSITION” (LAUNX BIOMEDICAL CO., LTD., priority 2014, published 2017).

Assay type in all cases: cell-based
The test system of data set [1] is PC3 (Prostate Adenocarcinoma). The data set can be described thus: Cell viability analysis (WST-1), PC3. To be noted: WST-1, OD450 nm; for viability at 10 µM: 72 h, Table 3, drug 10 μM, read-out: survival rate (viability) of cancer cells, PC3. (Formazan colour is commonly taken as a measure of viable cells.)
The test system of data set [2] is MCF7 (Mammary Gland, Adenocarcinoma). The data set is described as follows: Cell viability analysis (WST-1), MCF7. To be noted: WST-1, OD450 nm; for viability at 10 µM: Homo sapiens, MCF7, 72 h, Table 3, drug 10 μM, read-out: survival rate (viability) of cancer cells, MCF7.
The test system of data set [3] is HeLa (Cervix Adenocarcinoma). The data set is described as follows: Cell viability analysis (WST-1), HeLa. To be noted: Homo sapiens, HeLa, 72 h, Table 3, drug 10 μM, WST-1, OD450 nm, read-out: survival rate (viability) of cancer cells, HeLa.
Data set [4] concerns MKN-45 (Gastric Adenocarcinoma). The data set is described as follows: Cell viability analysis (WST-1), MKN-45. To be noted: WST-1, OD450 nm; for viability at 10 µM: Homo sapiens, MKN-45, 72 h, Table 3, drug 10 μM, read-out: survival rate (viability) of cancer cells, MKN-45.
The test system of data set [5] is HepG2 (Hepatocellular Carcinoma). The data set is described as follows: Cell viability analysis (WST-1), HepG2. To be noted: WST-1, OD450 nm; for viability at 10 µM: Homo sapiens, HepG2, 72 h, Table 3, drug 10 μM, read-out: survival rate (viability) of cancer cells, HepG2.
Data set [6] has as its system H1650 (Lung Adenocarcinoma). The data set is described as follows: Cell viability analysis (WST-1), H1650. To be noted: WST-1, OD450 nm; for viability at 10 µM: Homo sapiens, NCI-H1650, 72 h, Table 3, drug 10 μM, read-out: survival rate (viability) of cancer cells, H1650.
The test system of data set [7] is AGS (Gastric Adenocarcinoma). The data set is described as follows: Cell viability analysis (WST-1), AGS. To be noted: WST-1, OD450 nm; for viability at 10 µM: 72 h, Table 3, drug 10 μM, read-out: survival rate (viability) of cancer cells, AGS.
The subject of data set [8] is A375 (Amelanotic Melanoma). The data set is described as follows: Cell viability analysis (WST-1), A375. To be noted: WST-1, OD450 nm, lower viability = better inhibition; for viability at 10 µM: Homo sapiens, A-375, 72 h, Table 3, drug 10 μM, read-out: survival rate (viability) of cancer cells, A375; for survival rate (viability) of cancer cells, A375: Table 3, drug 10 μM, 72 hours.

The subject of data set [9] is A549 (Lung Adenocarcinoma). The data set can be described thus: Cell viability analysis (WST-1), A549. To be noted: WST-1, OD450 nm; for viability at 10 µM: Homo sapiens, A549, 72 h, Table 3, drug 10 μM, read-out: survival rate (viability) of cancer cells, A549.
Data set [10] has as its system cancer cell lines. The data set can be described thus: Growth inhibitory effects on the panel of cancer cell lines. To be noted: drug 10 μM, 72 hours; for Numbers of inhibitory effect on cancer cell line: count of cancer cell lines inhibited; for inhibition effect on different cancer cell lines (in words): WST-1.
Description: Subculture the different types of cancer cells.
For cell viability analysis, the cardiovascular drugs include peripheral vasodilator reaming enhancer, angiotensin converting agent inhibitor, hypotension and shock therapeutic agent, diuretic, antiarrhythmic agent, antiarralciton drug, antihypertensive agent, anticoagulant thrombolytic agent, cardiac tonic, intravenous (hemorrhoids) therapeutic agent, are used to test the inhibition effect of cancer cell.
In data set [11] the test system is HCT116 (Colorectal Carcinoma). The data set is described as follows: Cell viability analysis (WST-1), HCT116. To be noted: WST-1, OD450 nm; for viability at 10 µM: Homo sapiens, HCT-116, 72 h, Table 3, drug 10 μM, read-out: survival rate (viability) of cancer cells, HCT116 (WT); for survival rate (viability) of cancer cells, HCT116 (WT): Table 3, drug 10 μM, 72 hours.

Data set [12] concerns LoVo (Colorectal Adenocarcinoma). The data set is described as follows: Cell viability analysis (WST-1), LoVo. To be noted: WST-1, OD450 nm; for viability at 10 µM: Homo sapiens, LoVo, 72 h, Table 3, drug 10 μM, read-out: survival rate (viability) of cancer cells, LoVo.
Data set [13] has as its system TSGH-8301 (Urinary Bladder Carcinoma). The data set is described as follows: Cell viability analysis (WST-1), TSGH-8301. To be noted: WST-1, OD450 nm; for viability at 10 µM: 72 h, Table 3, drug 10 μM, read-out: survival rate (viability) of cancer cells, TSGH; for survival rate (viability) of cancer cells, TSGH: Table 3, drug 10 μM, 72 hours.
Data set [14] relates to HL-60 (Acute Promyelocytic Leukemia). The data set can be described thus: Cell viability analysis (WST-1), HL-60. To be noted: Table 3, drug 10 μM, 72 hours, WST-1, OD450 nm; for viability at 10 µM: Homo sapiens, HL-60, read-out: survival rate (viability) of cancer cells, HL-60.

Structures can show the parent of a compound that is named as a salt.

`CCC(NC(C)C)C(O)c1ccc(O)c(O)c1` (stereo not shown) [Isoetharine Mesylate]: the viability at 10 µM in data set [1] was 71.6%; in [2] it was 103%; in data set [3], 81.6%; in data set [4], 91%; in data set [5], 76.5%; in data set [6] it was 91.7%. For the same compound, the viability at 10 µM in data set [7] is 96.6%; in [8], 97%; in [9], 76.7%; in data set [11] it was 96.1%; in data set [12], 100%; in data set [13], 88.3%. Further, in data set [10], the “Numbers of inhibitory effect on cancer cell line” value (shortened to “Numbers of inhibitory effect”) is reported as 0. The “inhibition effect on different cancer cell lines (in words)” value in data set [10] is reported as “significant inhibition effect”.
As to Gabexate mesylate, the “survival rate (viability) of cancer cells, MKN-45” value in data set [4] (Table 3, drug 10 μM, 72 hours) stood at 81.1. Further, in data set [6] (Table 3, drug 10 μM, 72 hours), the “survival rate (viability) of cancer cells, H1650” value stood at 69.8. Besides, in data set [7] (Table 3, drug 10 μM, 72 hours), the “survival rate (viability) of cancer cells, AGS” value is 75.0. Also, in [8], the “survival rate (viability) of cancer cells, A375” value turned out to be 77.9. Also, in [14], the “survival rate (viability) of cancer cells, HL-60” value is listed as 117.6. In addition, the “survival rate (viability) of cancer cells, A549” value in [9] (Table 3, drug 10 μM, 72 hours) came out at 77.3. Moreover, in data set [10], the “Numbers of inhibitory effect” value worked out at 0 and the “inhibition effect on different cancer cell lines (in words)” value was “significant inhibition effect”. The “survival rate (viability) of cancer cells, HCT116 (WT)” value in data set [11] is reported as 114.9. Besides, the “survival rate (viability) of cancer cells, TSGH” value in data set [13] turned out to be 70.9.
Regarding `COc1ccc([C@H]2CNC(=O)C2)cc1OC1CCCC1` [S-(+)-Rolipram], in data set [1] (Table 3, drug 10 μM, 72 hours), the “survival rate (viability) of cancer cells, PC3” value is on record as 89.3. The “survival rate (viability) of cancer cells, MCF7” value in data set [2] (Table 3, drug 10 μM, 72 hours) is given as 80.4. Moreover, the “survival rate (viability) of cancer cells, HepG2” value in [5] (Table 3, drug 10 μM, 72 hours) turned out to be 90.4. The “survival rate (viability) of cancer cells, A375” value in data set [8] is given as 77.0. In addition, in data set [14], the “survival rate (viability) of cancer cells, HL-60” value worked out at 107.3. For the same compound, in data set [10], the “Numbers of inhibitory effect” value is recorded as 0 and the “inhibition effect on different cancer cell lines (in words)” value was “significant inhibition effect”. For the same compound, the “survival rate (viability) of cancer cells, HCT116 (WT)” value in data set [11] was found to be 86.2. In [12] (Table 3, drug 10 μM, 72 hours), the “survival rate (viability) of cancer cells, LoVo” value was found to be 94.1. Besides, the “survival rate (viability) of cancer cells, TSGH” value in [13] was determined as 81.1.
On to `NCCCCCC(=O)O` [Aminocaproic acid (Amicar), Aminocaproic acid], for which the viability at 10 µM in data set [1] came out at 79.6%; in data set [2], 69.2%; in [3] it was 90.4%; in data set [4], 80.2%; in data set [6], 65.4%; in data set [7] it was 64.8%. For the same compound, the viability at 10 µM in data set [8] came out at 123%; in [14], 93%; in [9], 70.3%; in data set [11], 114%; in [12], 91.2%; in data set [13], 71.4%. For the same compound, the “Numbers of inhibitory effect” value in data set [10] is on record as 0.
For the compound `CC1Cc2ccccc2N1NC(=O)c1ccc(Cl)c(S(N)(=O)=O)c1` (stereo not shown) [Indapamide (Lozol), Indapamide], the viability at 10 µM was 76.8% in data set [1]; 65.5% in data set [2]; 67.9% in [3]; 105% in data set [4]; 84% in data set [5]; 86.7% in data set [6]. Besides, the viability at 10 µM came out at 109% in [7]; 64.8% in data set [8]; 106% in data set [9]; 80% in data set [11]; 92.7% in data set [12]; 85% in data set [13]. In [10], the “Numbers of inhibitory effect” value was 0. In addition, the “inhibition effect on different cancer cell lines (in words)” value in [10] is “significant inhibition effect”.
Consider `NC(=O)c1ncn([C@@H]2O[C@H](CO)[C@@H](O)[C@H]2O)c1N` [Acadesine], for which the viability at 10 µM in data set [1] worked out at 94.8%; in data set [2] it was 84.7%; in [3] it was 88.4%; in data set [4], 81.5%; in data set [5] it was 103%; in data set [7] it was 75.4%. Moreover, the viability at 10 µM was found to be 99.1% in [8]; 110% in [14]; 117% in data set [9]; 88.7% in data set [11]; 80.9% in [12]; 99.7% in data set [13]. The “Numbers of inhibitory effect” value in data set [10] is reported as 0. Further, the “inhibition effect on different cancer cell lines (in words)” value in data set [10] is on record as “significant inhibition effect”.
Take `CC(C)OC(=O)C(C)(C)Oc1ccc(C(=O)c2ccc(Cl)cc2)cc1` [Fenofibrate (Tricor, Trilipix), Fenofibrate]: the viability at 10 µM in data set [1] was determined as 105%; in data set [2], 78.1%; in [3], 98.3%; in data set [4], 83.1%; in data set [5], 104%; in data set [6] it was 122%. The viability at 10 µM is 84.1% in [7]; 159% in data set [8]; 77.6% in [14]; 98.9% in data set [11]; 103% in [13].
`Cc1cccc(Nc2ccccc2C(=O)O)c1C` [Mefenamic acid]: the viability at 10 µM was 103% in data set [1]; 95.3% in data set [2]; 76.1% in data set [3]; 115% in [4]; 73.9% in [6]; 71.1% in data set [7]. Moreover, the viability at 10 µM in data set [8] was determined as 78.7%; in [14], 113%; in [9], 116%; in data set [11], 85.9%; in data set [12] it was 83.3%; in [13], 118%. In data set [10], the “Numbers of inhibitory effect” value was 0. Also, the “inhibition effect on different cancer cell lines (in words)” value in data set [10] is listed as “significant inhibition effect”.
Turning to `Cc1cccc(Nc2ccncc2S(=O)(=O)NC(=O)NC(C)C)c1` [Torsemide (Demadex), Torsemide], the “inhibition effect on different cancer cell lines (in words)” value in data set [10] is given as “significant inhibition effect”.
For `C[C@@H]1C(=O)O[C@H]2C[C@@]34[C@H]5C[C@@H](C(C)(C)C)[C@]36[C@@H](OC(=O)[C@@H]6O)O[C@@]4(C(=O)O5)[C@]21O` [Ginkgolide A], the “inhibition effect on different cancer cell lines (in words)” value in data set [10] was “significant inhibition effect”.
As to `C[C@]12CCC(=O)C=C1C=C[C@@H]1[C@@H]2CC[C@@]2(C)[C@H]1CC[C@@]2(O)CCC(=O)O` [Potassium Canrenoate], the “inhibition effect on different cancer cell lines (in words)” value in data set [10] is recorded as “significant inhibition effect”.
The same measure, in the same setting: with `CCCCCCCCOc1ccccc1C(=O)Nc1ccc(C(=O)OCC[N+](C)(CC)CC)cc1` [Otilonium Bromide] the entry was “significant inhibition effect”; with `O=C1[C@H](CC[C@H](O)c2ccc(F)cc2)[C@@H](c2ccc(O)cc2)N1c1ccc(F)cc1` [Ezetimibe (Zetia), Ezetimibe], “significant inhibition effect”; with `CN[C@@H]1[C@H](O)[C@H](NC)[C@H]2O[C@@]3(O)C(=O)C[C@@H](C)O[C@H]3O[C@@H]2[C@H]1O` [Spectinomycin hydrochloride], “significant inhibition effect”.
